Results on two compounds are retold here after paper PMC5855875, “Teixobactin analogues reveal enduracididine to be non-essential for highly potent antibacterial activity and lipid II binding” (Chemical Science, 2017).

≈ marks a conversion by molar mass, not a printed value. Like-named read-outs stand apart in the source and are kept apart here.

In test [1] the test system is MRSA 2: MRSA DR 42412 (sputum). Kind of test: microbe, parasite or virus in culture. Particulars: 24 h; for MIC: Staphylococcus aureus, MRSA. How it is done: (§1) VIII. MIC testing (extended panel)
(§2) Bacterial cultures were grown overnight i n Mueller-Hinton Agar (MHA) plates and adjusted to a final concentration of 10 5 – 106 CFU/ml. 100 µl of inoculum in Meuller -Hinton broth (MHB) was mixed with equal volume of peptides (dissolved in MHB) at 2x their concentration in a 96 well plate. In parallel experiments, MIC values were determined in the media containing polysorbate 80 (0 .002%, v/v) to […]
(§3) prevent non-specific adsorption of the peptides to plastic surfaces. The final peptides concentrations […]
(§4) Positive and negative controls contained 200 µl of inoculum without any peptide dissolved in broth, respectively. The 96 well plates were then incubated at 37 °C for 24 h. […]
(§5) 80. Strain information: MRSA 1: MRSA ATCC 700699, MRSA 2: MRSA DR 42412 (sputum), MRSA
(§6) 3: MRSA DM21455 (eye). […] Staphylococcus aureus ATCC

A further test deals with MRSA DM21455. Nature of the test: Time-kill kinetics. It counts as cell-based, Methicillin-resistant Staphylococcus aureus. The following applies: without polysorbate 80. The method, then:
IX. Time-dependent killing of bacteria by teixobactin analogues 12 and 13 Time-kill kinetics against MRSA DM21455 strains (clinical isolates from patients) was carried out in MHB. Cultures were grown overnight in MHA plates and adjusted to a final inoculum of 10^5 – 10^6 CFU/ml in MHB (containing 0.002% v/v, polysorbate 80) with teixobactin analogues 12 and 13 maintained at a final concentration of 0.5 µg/ml. For vancomycin, the concentration was varied from 0.5 – 16 µg/ml without polysorbate 80. The tubes were then incubated at 37 °C. 100 µl of cell suspension was withdrawn at various time points (0, 2, 4, 8, 24 h), serially diluted (101-105 fold dilutions) and plated onto a MHA plates and incubated for 24 h at 37 °C.
Colonies were then enumerated […]. Colony counting too numerous to count (>300 colonies) was taken as 1010 CFU. Average values from two independent experiments are reported. […]
(also on this page, place not known: polyso rbate vancomycin , concentr ation 80 . wer e µ l (10 1-105 10 10 previously n - TL C three S76: (Ala10-teixobactin) literature.7 Lipid II Lipid II: Compound 8 = 1:1 Lipid II: Compound 16 = 1:1 Lipid II: Compound 8 = 1:2 Lipid II: Compound 16 = 1:2 Lipid II: Compound 8 = 1:4)

Test [2] relates to Staphylococcus aureus ATCC 29213. Nature of the test: microbe, parasite or virus in culture. Particulars: for MIC: Staphylococcus aureus. How it is done:
as §1, §2, §3
(§7) Positive and negative controls contained 200 µl of inoculum without any peptide dissolved in broth, respectively. The 96 well plates were then incubated at 37 °C for 24 h.
(§8) All the experiments were performed in two independent duplicates and the MIC was determined as the […]
(§9) Minimum bactericidal concentration
(§10) The lowest concentration in which no visible colonies could be detected was taken as the MBC.
as §5, §6

Test [3] relates to MRSA 3: MRSA DM21455 (eye). Nature of the test: microbe, parasite or virus in culture. Particulars: 24 h; for MIC: Staphylococcus aureus, MRSA. How it is done: as §1, §2, §3, §7, §8, §9, §10, §5, §6
The next test concerns MRSA 1: MRSA ATCC 700699. Nature of the test: microbe, parasite or virus in culture. The following applies: 24 h; for MIC: Staphylococcus aureus. The method, then:
as §1, §2, §3, §7, §8, §9, §10, §5, §6

In a further test the test system is MRSA ATCC 33591. Nature of the test: microbe, parasite or virus in culture. The following applies: Staphylococcus aureus, 24 h. The method, then: (§11) were grown in Mueller Hinton broth (Oxoid) in triplicate. All incubations were at 37°C. Dilutions were carried out in triplicate. 100 µl of autoclaved Mueller Hinton broth was added to wells 2-12 in a 96-well plate. 200 µl of the peptide was added to well one at a concentration of 256 µg/mL. 100µl of peptide in well one was taken up and pipetted into well two. The mixture was then mixed via pipetting before 100µl was taken up and pipetted into well three. This process was repeated up to well 11. Once […]
(§12) peptide present. Thus, the concentrations (in µg/mL) were: 256, 128, 64, 32, 16, 8, 4, 2, 1, 0.5, 0.25 and no peptide present. Each well was then inoculated with 100µl of bacteria that had been diluted to an […]
(§13) This was repeated three times. The 96-well plates were then incubated at 37°C for 24 hours. The MIC was determined to be the lowest concentration at which there was no growth visible. […]
(§14) was repeated at an altered initial concentration of 64 µg/ml. Therefore, the new concentrations for MIC […]
as §1, §2

In a further test the test system is VRE 1: VRE ATCC 700802. Kind of test: organism not typed. The method, then:
as §1, §2, §3, §4, §5, §6

The test system of the next test is VRE 2: VRE ATCC 29212. Kind of test: organism not typed. The method, then: as §1, §2, §3, §4, §5, §6
The subject of the next test is M. smegmatis ATCC 607. Kind of test: microbe, parasite or virus in culture. The following applies: Mycolicibacterium smegmatis, ATCC607, 72 h. How it is done:
as §11, §12, §13, §14
Middlebrook 7H9 broth (SIGMA) supplemented to 5% Middlebrook ADC (SIGMA) growth

[4] abbreviates: read-out: MIC (with polysorbate 80).
[5] abbreviates: read-out: MIC (without polysorbate 80).
The mark [6] stands for this setting: Enterococcus, 24 h, read-out: MIC (with polysorbate 80).
The mark [7] stands for this setting: Enterococcus, 24 h, read-out: MIC (without polysorbate 80).

Turning to `CN[C@H](CC(C)C)C(=O)N[C@H]1C(=O)N[C@@H](CC(N)=O)C(=O)N[C@H]2C(=O)N[C@H]3C(=O)N[C@H](C(=O)N[C@H](C(=O)O)c4cc(O)cc(O)c4-c4cc3ccc4O)[C@H](O)c3ccc(c(Cl)c3)Oc3cc2cc(c3O[C@@H]2O[C@H](CO)[C@@H](O)[C@H](O)[C@H]2O[C@H]2C[C@](C)(N)[C@H](O)[C@H](C)O2)Oc2ccc(cc2Cl)[C@H]1O` [Compound 18, Vancomycin, reference compound], the MIC was 2 µg/mL (≈ 1.38 µM) in test [1]; 1 µg/mL (≈ 0.69 µM) in test [1] (setting [4]); 2 µg/mL (≈ 1.38 µM) in [1] (setting [5]); 2 µg/mL (≈ 1.38 µM) in test [2] (ATCC29213, 24 h, read-out: MIC (with polysorbate 80)); 4 µg/mL (≈ 2.76 µM) in test [2] (ATCC29213, 24 h, read-out: MIC (without polysorbate 80)); 4 µg/mL (≈ 2.76 µM) in test [2] (ATCC29213 / MSSA, 24 h). The MIC in test [3] is 2 µg/mL (≈ 1.38 µM); in [3] (setting [4]), 1 µg/mL (≈ 0.69 µM); in test [3] (setting [5]), 2 µg/mL (≈ 1.38 µM); against MRSA 1: MRSA ATCC 700699, 2 µg/mL (≈ 1.38 µM); in the test on MRSA 1: MRSA ATCC 700699 (ATCC700699|MRSA, read-out: MIC (with polysorbate 80)) it was 1 µg/mL (≈ 0.69 µM); in the test on MRSA 1: MRSA ATCC 700699 (ATCC700699|MRSA, read-out: MIC (without polysorbate 80)), 2 µg/mL (≈ 1.38 µM). The MIC in the test with MRSA ATCC 33591 was 2 µg/mL (≈ 1.38 µM); with VRE 1: VRE ATCC 700802 it was greater than 4 µg/mL; with VRE 1: VRE ATCC 700802 (setting [6]), greater than 4 µg/mL; with VRE 1: VRE ATCC 700802 (setting [7]), greater than 4 µg/mL; with VRE 2: VRE ATCC 29212, greater than 4 µg/mL; in the test with VRE 2: VRE ATCC 29212 (setting [6]), greater than 4 µg/mL. The MIC is greater than 4 µg/mL in the test with VRE 2: VRE ATCC 29212 (setting [7]) and greater than 64 µg/mL in the test on M. smegmatis ATCC 607. For the same compound, the time-kill outcome in the test on MRSA DM21455 (0.5 μg mL^–1, 37 °C) was “substantial growth was observed”. For the same compound, the “concentration needed for similar effects as teixobactin analogues 12 & 13 in time-kill” value in the test on MRSA DM21455 (MRSA 21455) stood at 8 μg mL^–1.
With `CCCCCCCCCC(=O)N[C@@H](Cc1c[nH]c2ccccc12)C(=O)N[C@H](CC(N)=O)C(=O)N[C@@H](CC(=O)O)C(=O)N[C@@H]1C(=O)NCC(=O)N[C@@H](CCCN)C(=O)N[C@@H](CC(=O)O)C(=O)N[C@H](C)C(=O)N[C@@H](CC(=O)O)C(=O)NCC(=O)N[C@H](CO)C(=O)N[C@@H]([C@H](C)CC(=O)O)C(=O)N[C@@H](CC(=O)c2ccccc2N)C(=O)O[C@@H]1C` [Daptomycin, reference compound], the “MIC (with polysorbate 80)” value was found to be 0.5 µg/mL (≈ 0.309 µM) in test [1] (MRSA 2, MHB containing polysorbate 80 (0.002%, v/v), 37 °C); 0.25 µg/mL (≈ 0.154 µM) in [2] (S. aureus ATCC 29213, MHB containing polysorbate 80 (0.002%, v/v), 37 °C, 24 h); 0.5 µg/mL (≈ 0.309 µM) in test [3] (MRSA 3, MHB containing polysorbate 80 (0.002%, v/v), 37 °C); 0.5 µg/mL (≈ 0.309 µM) against MRSA 1: MRSA ATCC 700699 (MRSA 1, MHB containing polysorbate 80 (0.002%, v/v), 37 °C, two independent duplicates); 0.5 µg/mL (≈ 0.309 µM) in the test on VRE 1: VRE ATCC 700802 (VRE 1, MHB containing polysorbate 80 (0.002%, v/v), 37 °C, 24 h); 0.5 µg/mL (≈ 0.309 µM) with VRE 2: VRE ATCC 29212 (VRE 2, MHB containing polysorbate 80 (0.002%, v/v), 37 °C, 24 h).
